Article PMC3538380 (Stem cells (Dayton, Ohio), 2013)

What was measured:
[1] = target: purified GAPDH enzyme from rabbit muscle (Oryctolagus cuniculus, UniProt P46406); experiment: GAPDH enzymatic assay, NADH fluorescence; assay type: biochemical
GAPDH in GSC11 cells = GAPDH in GSC11 cells (Homo sapiens, UniProt P04406); experiment: GAPDH activity in lysate of treated cells, NADH fluorescence; assay type: cell-based
Chain of GAPDH in GSC11 cells (P04406 2-335): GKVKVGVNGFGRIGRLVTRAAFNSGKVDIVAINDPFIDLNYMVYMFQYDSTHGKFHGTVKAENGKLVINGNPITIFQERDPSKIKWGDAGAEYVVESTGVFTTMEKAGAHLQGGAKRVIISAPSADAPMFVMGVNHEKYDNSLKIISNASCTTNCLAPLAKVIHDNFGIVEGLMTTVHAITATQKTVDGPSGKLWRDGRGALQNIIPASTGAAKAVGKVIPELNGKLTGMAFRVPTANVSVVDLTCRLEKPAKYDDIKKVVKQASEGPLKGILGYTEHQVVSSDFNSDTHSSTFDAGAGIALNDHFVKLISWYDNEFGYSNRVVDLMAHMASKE

Chain of purified GAPDH enzyme from rabbit muscle (P46406 whole entry): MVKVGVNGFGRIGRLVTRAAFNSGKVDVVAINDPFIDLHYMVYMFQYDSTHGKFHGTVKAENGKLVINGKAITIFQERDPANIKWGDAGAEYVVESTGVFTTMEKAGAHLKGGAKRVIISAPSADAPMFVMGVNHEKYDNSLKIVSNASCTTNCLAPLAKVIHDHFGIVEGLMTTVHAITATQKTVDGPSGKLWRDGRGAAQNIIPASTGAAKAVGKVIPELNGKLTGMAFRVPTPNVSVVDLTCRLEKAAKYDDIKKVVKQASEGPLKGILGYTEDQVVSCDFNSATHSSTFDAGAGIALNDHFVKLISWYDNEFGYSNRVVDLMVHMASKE

O=NN(CCCl)C(=O)NCCCl [BCNU]
IC50 [1]: ~200 µM | inhibition at 200 µM (GAPDH in GSC11 cells; read-out: % inhibition at 200 μM): ~60%

CCCOC(=O)C(=O)CBr [3-BrOP, 3-bromo-2-oxopropionate-1-propyl ester]
IC50 [1]: ~10 µM | inhibition at 10 µM (GAPDH in GSC11 cells; read-out: % inhibition at 10 μM): ~60%
